# Source: publication PMC7113892 (Antiviral Research, 2017)
# How the values were obtained:
# [1] = molecular target: human RNA N7-methyltransferase (RNMT) (Homo sapiens, UniProt O43148); assay: biochemical
# DENV-2 NS5-RdRp = DENV-2 NS5-RdRp (Dengue virus type 2, UniProt P14340); type: biochemical; conditions: 50 μM
# Sequence of human RNA N7-methyltransferase (RNMT) (O43148 whole entry, looked up): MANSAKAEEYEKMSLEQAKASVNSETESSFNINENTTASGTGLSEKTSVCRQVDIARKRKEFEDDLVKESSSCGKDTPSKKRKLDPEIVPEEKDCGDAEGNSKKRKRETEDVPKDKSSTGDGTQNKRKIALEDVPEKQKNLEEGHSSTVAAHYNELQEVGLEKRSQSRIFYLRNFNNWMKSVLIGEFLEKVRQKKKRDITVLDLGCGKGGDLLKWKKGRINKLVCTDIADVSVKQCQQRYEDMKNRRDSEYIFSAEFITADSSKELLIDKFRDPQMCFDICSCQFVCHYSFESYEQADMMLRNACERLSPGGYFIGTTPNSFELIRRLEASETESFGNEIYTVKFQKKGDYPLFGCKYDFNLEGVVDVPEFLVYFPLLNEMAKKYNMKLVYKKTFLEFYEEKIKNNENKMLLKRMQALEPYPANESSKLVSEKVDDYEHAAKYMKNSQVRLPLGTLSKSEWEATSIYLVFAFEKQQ
compound,measurement,setting,value
Nc1ncnc2c1ncn2[C@@H]1O[C@H](C[C@@H](N)CC[C@H](N)C(=O)O)[C@@H](O)[C@H]1O [Sinefungin],IC50,[1],< 50 nM
same,Inhibition of RdRp activity of DENV NS5 (in words),DENV-2 NS5-RdRp,no inhibition detected
